Where two headings read alike, the source gives them in different places.
How the values were obtained:
[1] = biological target: T1, catalytic domain of human Bub1 (amino acids 704-1085) (Homo sapiens, UniProt O43683); test: Bub1 kinase assay (TR-FRET); format: biochemical
T1 construct: catalytic domain of human Bub1 (amino acids 704-1085); His6 (N); made in house; host or cells: Hi5 insect cells
Protocol: To this end, 100-fold concentrated compound solutions (in DMSO) were previously prepared by serial dilution (1:3.4) of 2 mM stocks in a clear low volume 384-well source microtiter plate (Greiner Bio-One, Frickenhausen, Germany), from which 50 nL of compounds were transferred into a black low volume test microtiter plate from the same supplier. […] The resulting mixture (5 μL final volume) was incubated at 22° C. during 60 min., and the reaction was stopped by the addition of 5 μL of an aqueous EDTA-solution (50 mM EDTA, in 100 mM HEPES pH 7.5 and 0.2% (w/v) bovine serum albumin) which also contained the TR-FRET detection reagents (0.2 μM streptavidin-XL665 [Cisbio Bioassays, Codolet, France] and 1 nM anti-phoshoSerine antibody [Merck Millipore, cat. #35-001] and 0.4 nM LANCE EU-W1024 labeled anti-mouse IgG antibody [Perkin-Elmer, product no. AD0077, alternatively a Terbium-cryptate-labeled anti-mouse IgG antibody from Cisbio Bioassays can be used]). The stopped reaction mixture was further incubated 1 h at 22° C. in order to allow the formation of complexes between peptides and detection reagents. Subsequently, the amount of product was evaluated by measurement of the resonance energy transfer from the Eu-chelate-antibody complex recognizing the Phosphoserine residue to the streptavidin-XL665 bound to the biotin moiety of the peptide. […] IC50 values were calculated by fitting the normalized inhibition data to a 4-parameter logistic equation (Minimum, Maximum, IC50, Hill; Y=Max+(Min−Max)/(1+(X/IC50)Hill)).

[2] = test system: HeLa human cervical tumor cells; test: Proliferation assay (HeLa cell line); conditions: 96 h, read-out: Biological Assay 2: Proliferation assay (HeLa cell line) median IC50;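 also: crystal violet staining, absorbance at 595 nm, 0.001–10 µM test range, 4-day exposure, 0% is cell number at dosing and 100% untreated growth, IC50 from 4-parameter fit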
Protocol: Cultivated HeLa human cervical tumor cells (cells were ordered from ATCC CCL-2) were plated at a density of 3000 cells/well in a 96-well multititer plates in 200 microL DMEM/HAMS F12 culture medium (Biochrom F4815) supplemented with 10% fetal calf serum. After 24 hours, the cells of one plate (zero-point plate) were stained with crystal violet (see below), while the medium of the other plates was replaced by fresh culture medium (200 microL) containing the test substances in various concentrations (0 microM, as well as in the range of 0.001-10 microM; the final concentration of the solvent dimethyl sulfoxide was 0.5%). The cells were incubated for 4 days in the presence of test substances. Cell proliferation was determined by staining the cells with crystal violet: the cells were fixed by adding 20 microL/measuring point of an 11% glutaric aldehyde solution for 15 minutes at room temperature. After three washing cycles of the fixed cells with water, the plates were dried at room temperature. The cells were stained by adding 100 microL/measuring point of a 0.1% crystal violet solution (pH 3.0). After three washing cycles of the stained cells with water, the plates were dried at room temperature. The dye was dissolved by adding 100 microL/measuring point of a 10% acetic acid solution. Absorption was determined by photometry at a wavelength of 595 nm. The change of cell number, in percent, was calculated by normalization of the measured values to the absorption values of the zero-point plate (=0%) and the absorption of the untreated (0 microM) cells (=100%). The IC50 values were determined by means of a 4 parameter fit.

[3] = TR-FRET, recombinant catalytic domain of human Bub1, ATP 10 μM, peptide substrate 1 μM, 60 min at 22° C., read-out: Biological Assay 1: Bub1 kinase assay median IC50

T1 sequence (O43683 704-1085): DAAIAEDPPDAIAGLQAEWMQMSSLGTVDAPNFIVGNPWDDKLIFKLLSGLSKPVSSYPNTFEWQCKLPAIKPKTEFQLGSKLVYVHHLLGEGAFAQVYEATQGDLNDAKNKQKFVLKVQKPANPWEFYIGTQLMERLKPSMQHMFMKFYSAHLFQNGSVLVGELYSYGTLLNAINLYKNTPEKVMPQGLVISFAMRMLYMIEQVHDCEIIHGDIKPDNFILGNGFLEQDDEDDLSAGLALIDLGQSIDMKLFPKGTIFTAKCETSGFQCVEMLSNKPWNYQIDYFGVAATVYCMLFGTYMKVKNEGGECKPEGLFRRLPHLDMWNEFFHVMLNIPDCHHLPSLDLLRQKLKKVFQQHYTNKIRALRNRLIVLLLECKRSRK

| IC50 [1] [nM] | IC50 [2] [µM] | IC50 [1, 3] [nM] | Structure (SMILES) |
| --- | --- | --- | --- |
| 70 | > 10 |  | CCOC(=O)c1cnccc1Nc1cc(N)nc(-c2nn(Cc3c(C)noc3C)c3ccccc23)n1 [Example 2-3-1, ethyl 4-[(6-amino-2-{1-[(3,5-dimethyl-1,2-oxazol-4-yl)methyl]-1H-indazol-3-yl}pyrimidin-4-yl)amino]pyridine-3-carboxylate] |
|  | > 10 | 610 | COc1cnc(-c2nn(Cc3c(C(F)(F)F)nnn3C)c3ccccc23)nc1Nc1ccncc1 [Example 2-1-8, 5-methoxy-2-(1-{[1-methyl-4-(trifluoromethyl)-1H-1,2,3-triazol-5-yl]methyl}-1H-indazol-3-yl)-N-(pyridin-4-yl)pyrimidin-4-amine] |
| 8 | 8.8 |  | COc1cnc(-c2nn(Cc3cscn3)c3ccccc23)nc1Nc1ccncc1C(N)=O [Example 2-2-11, 4-({5-methoxy-2-[1-(1,3-thiazol-4-ylmethyl)-1H-indazol-3-yl]pyrimidin-4-yl}amino)nicotinamide] |
| 58 | 7.1 |  | COc1cnc(-c2nn(Cc3ccc(C(F)(F)F)nc3C)c3ccccc23)nc1Nc1ccncc1 [Example 2-1-5, 5-methoxy-2-(1-{[2-methyl-6-(trifluoromethyl)pyridin-3-yl]methyl}-1H-indazol-3-yl)-N-(pyridin-4-yl)pyrimidin-4-amine] |
| 34 |  |  | Cc1noc(C)c1Cn1nc(-c2nc(N)cc(Nc3ccncc3C(=O)NCCO)n2)c2ccccc21 [Example 2-4-1, 4-[(6-amino-2-{1-[(3,5-dimethyl-1,2-oxazol-4-yl)methyl]-1H-indazol-3-yl}pyrimidin-4-yl)amino]-N-(2-hydroxyethyl)nicotinamide] |
| 99 |  |  | CNC(=O)c1cnccc1Nc1nc(-c2nn(Cc3nnc(C)o3)c3ccccc23)ncc1OC [Example 2-2-15, 4-[(5-methoxy-2-{1-[(5-methyl-1,3,4-oxadiazol-2-yl)methyl]-1H-indazol-3-yl}pyrimidin-4-yl)amino]-N-methylnicotinamide] |

The remaining lines, values behind:

| Structure (SMILES) | IC50 [1] [nM] | IC50 [2] [µM] | IC50 [1, 3] [nM] |
| --- | --- | --- | --- |
| COc1cnc(-c2nn(Cc3c(C(F)(F)F)nn(C)c3C(F)F)c3ccccc23)nc1Nc1ccncc1 [Example 2-1-10, 2-(1-{[5-(difluoromethyl)-1-methyl-3-(trifluoromethyl)-1H-pyrazol-4-yl]methyl}-1H-indazol-3-yl)-5-methoxy-N-(pyridin-4-yl)pyrimidin-4-amine] | 3200 |  |  |
| Cc1noc(C)c1Cn1nc(-c2nc(N)cc(Nc3ccncn3)n2)c2ccccc21 [Example 2-3-3, 2-{1-[(3,5-dimethyl-1,2-oxazol-4-yl)methyl]-1H-indazol-3-yl}-N-(pyrimidin-4-yl)pyrimidine-4,6-diamine] | 31 | 0.65 |  |
| COc1cnc(-c2nn(Cc3c(C(F)F)nn(C)c3OCC(F)(F)F)c3ccccc23)nc1Nc1ccncc1 [Example 2-1-7, 2-(1-{[3-(difluoromethyl)-1-methyl-5-(2,2,2-trifluoroethoxy)-1H-pyrazol-4-yl]methyl}-1H-indazol-3-yl)-5-methoxy-N-(pyridin-4-yl)pyrimidin-4-amine] | 450 |  |  |
| COc1cnc(-c2nn(Cc3c(C)nnn3C(F)F)c3ccccc23)nc1N(Cc1c(C)nnn1C(F)F)c1ccncc1 [Example 2-1-9, N-{[1-(difluoromethyl)-4-methyl-1H-1,2,3-triazol-5-yl]methyl}-2-(1-{[1-(difluoromethyl)-4-methyl-1H-1,2,3-triazol-5-yl]methyl}-1H-indazol-3-yl)-5-methoxy-N-(pyridin-4-yl)pyrimidin-4-amine] |  |  | 790 |
| COc1cnc(-c2nn(Cc3c(C)nnn3C(F)F)c3ccccc23)nc1Nc1ccncc1 [Example 2-1-6, 2-(1-{[1-(difluoromethyl)-4-methyl-1H-1,2,3-triazol-5-yl]methyl}-1H-indazol-3-yl)-5-methoxy-N-(pyridin-4-yl)pyrimidin-4-amine] |  |  | 150 |
| COc1cnc(-c2nn(Cc3cn4cccnc4n3)c3ccccc23)nc1Nc1ccncc1 [Example 2-2-6, 2-[1-(imidazo[1,2-a]pyrimidin-2-ylmethyl)-1H-indazol-3-yl]-5-methoxy-N-(pyridin-4-yl)pyrimidin-4-amine] |  |  | 1600 |

— patent US20160046604A1, “HETEROARYL SUBSTITUTED INDAZOLES” (BAYER PHARMA AKTIENGESELLSCHAFT, priority 2013, published 2016)
